The values below are quoted from earlier work in patent publication US20130022829A1, “OIL BORNE WOOD PRESERVING COMPOSITION FOR TREATMENT OF POLES, POSTS, PILING, CROSSTIES AND OTHER WOODED STRUCTURES” (Osmose, Inc., priority 2009, published 2013).

The test system of this data set is Poria. Conditions: background statement on copper soaps.

As for `CCCCC(CC)C(=O)[O-].CCCCC(CC)C(=O)[O-].[Cu+2]` (centres unmarked) [Cu-octoate], the “efficacy against copper tolerant fungi, e.g., Poria sp.” value was “insufficient efficacy”.
For the compound Cu-naphthenate, the “efficacy against copper tolerant fungi, e.g., Poria sp.” value is reported as “insufficient efficacy”.
